Test results from ChEMBL document CHEMBL1201862, “PubChem BioAssay data set” (2004).
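Dose response: 5 concentrations. Exposure: 48 h. Format: 96-well plates. Endpoint: linear interpolation; highest concentration if not reached. GI50 = concentration required for 50% inhibition of growth.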 Calls of active or inactive are those of the source. Cut-off read from the data, not from the text of the source: active = GI50 up to about 1.1 µM and inactive = higher.

Key:
Assay in all cases: NCI anticancer screen, dose series, 48 h
[1] = system: HCC 2998
[2] = system: RXF 631
[3] = system: Malme-3M
[4] = system: A549
[5] = system: SK-MEL-2
[6] = system: EKVX
[7] = system: CCRF-CEM
[8] = system: HOP-62
[9] = system: DMS-273
[10] = system: NCI-H460
[11] = system: HOP-18
[12] = system: SN12C
[13] = system: SNB-78
[14] = system: OVCAR-3
[15] = system: SF-539
[16] = system: UO-31
[17] = system: SW-620
[18] = system: HCT-15
[19] = system: XF498
[20] = system: SR
[21] = system: COLO 205
[22] = system: HT-29
[23] = system: SK-OV-3
[24] = system: U-251
[25] = system: 786-0
[26] = system: NCI-H226
[27] = system: MOLT-4
[28] = system: ACHN
[29] = system: UACC-62
[30] = system: SF-295
[31] = system: NCI-H23
[32] = system: SNB-75
[33] = system: SK-MEL-28
[34] = system: LXFL 529
[35] = system: SF-268
[36] = system: OVCAR-8
[37] = system: K562
[38] = system: M19-MEL
[39] = system: SNB-19
[40] = system: SK-MEL-5
[41] = system: NCI-H522
[42] = system: HCT-116
[43] = system: TK-10
[44] = system: IGROV-1
[45] = system: OVCAR-5
[46] = system: UACC-257
[47] = system: DLD-1
[48] = system: M14
[49] = system: OVCAR-4
[50] = system: DMS-114
[51] = system: RXF 393
[52] = system: KM-20L2
[53] = system: A498
[54] = system: HL-60
[55] = system: HOP-92
[56] = system: RPMI-8226
[57] = system: CAKI-1
[58] = system: KM12
[59] = system: LOX IMVI

Measured: GI50

N#CC(C(=O)CCCC(=O)Nc1ccccc1[N+](=O)[O-])c1c(Cl)cccc1Cl (stereo not given)
inactive: [1] > 100 µM | [2] > 100 µM | [3] > 100 µM | [4] > 100 µM | [5] > 100 µM | [6] > 100 µM | [7] > 100 µM | [8] > 100 µM | [9] > 100 µM | [10] > 100 µM | [11] 31 µM | [12] > 100 µM | [13] > 100 µM | [14] > 100 µM | [15] > 100 µM | [16] > 100 µM | [17] > 100 µM | [19] > 100 µM | [20] > 100 µM | [21] > 100 µM | [22] > 100 µM | [23] > 100 µM | [24] > 100 µM | [25] > 100 µM | [26] > 100 µM | [27] > 100 µM | [28] > 100 µM | [29] > 100 µM | [30] > 100 µM | [31] > 100 µM | [32] > 100 µM | [33] > 100 µM | [34] > 100 µM | [35] > 100 µM | [36] > 100 µM | [37] > 100 µM | [38] > 100 µM | [39] > 100 µM | [40] > 100 µM | [41] > 100 µM | [42] > 100 µM | [43] > 100 µM | [44] > 100 µM | [45] > 100 µM | [46] > 100 µM | [47] > 100 µM | [48] > 100 µM | [49] > 100 µM | [50] > 100 µM | [51] > 100 µM | [52] > 100 µM | [53] > 100 µM | [54] 99.1 µM | [55] 61.9 µM | [56] > 100 µM | [57] > 100 µM | [58] > 100 µM
> 100 µM: [18]

OCC1CC2CC1C1(C2)OCCO1 (stereo not given)
inactive: [2] > 100 µM | [3] > 100 µM | [4] > 100 µM | [5] > 100 µM | [6] > 100 µM | [7] > 100 µM | [8] > 100 µM | [9] > 100 µM | [10] > 100 µM | [11] > 100 µM | [12] > 100 µM | [13] > 100 µM | [14] > 100 µM | [15] > 100 µM | [16] > 100 µM | [17] > 100 µM | [19] > 100 µM | [20] > 100 µM | [21] > 100 µM | [22] > 100 µM | [23] > 100 µM | [24] > 100 µM | [25] > 100 µM | [26] > 100 µM | [27] > 100 µM | [28] > 100 µM | [29] > 100 µM | [30] > 100 µM | [31] > 100 µM | [32] > 100 µM | [33] > 100 µM | [34] > 100 µM | [35] > 100 µM | [36] > 100 µM | [37] > 100 µM | [38] > 100 µM | [39] > 100 µM | [40] > 100 µM | [41] > 100 µM | [42] > 100 µM | [59] > 100 µM | [43] > 100 µM | [44] > 100 µM | [45] > 100 µM | [46] > 100 µM | [47] > 100 µM | [48] > 100 µM | [49] > 100 µM | [50] > 100 µM | [51] > 100 µM | [52] > 100 µM | [53] > 100 µM | [54] > 100 µM | [55] > 100 µM | [56] > 100 µM | [57] > 100 µM | [58] > 100 µM
